Earlier results, collected in patent US8642081B2, “Chewable, suckable and swallowable tablet containing a calcium-containing compound as an active substance” (Takeda Nycomed AS, priority 2004, dated 2014).

System: treated patients
Details: annual injections of 150.000-300.000 IU

vitamin D
overall fracture rate: significant reduction
rate of hip fracture: not
